According to ChEMBL document CHEMBL1153672, “Synthesis and biological activity of a novel class of cephalosporins with a oxadiazolyl hydroxypyridone moiety at C-7” (1995):
≈ marks a conversion by molar mass, not a printed value.

How the values were obtained:
Assay type in all cases: functional
Escherichia coli = test: In vitro antibacterial activity against Escherichia coli ML4707
Pseudomonas aeruginosa [1] = test: In vitro antibacterial activity against Pseudomonas aeruginosa E-2
Pseudomonas aeruginosa [2] = test: In vitro antibacterial activity against Pseudomonas aeruginosa IFO12689
Staphylococcus aureus = test: In vitro antibacterial activity against Staphylococcus aureus Smith
Mus musculus [3] = test: Tested in vivo for the therapeutic efficacy against systemic infection caused by Pseudomonas aeruginosa E-2 in mice at a challenge dose of 8*10e4 (cfu/mouse) + 5%mucin
Mus musculus [4] = test: Tested in vivo for the therapeutic efficacy against systemic infection caused by Staphylococcus aureus Smith in mice at a challenge dose of 5*10e6 (cfu/mouse) + 5%mucin
Mus musculus [5] = test: Tested in vivo for the therapeutic efficacy against systemic infection caused by Staphylococcus aureus Smith in mice at a challenge dose of 3.3*10e6 (cfu/mouse) + 5%mucin
Mus musculus [6] = species on record: Mus musculus; test: Tested for the therapeutic efficacy against systemic infection caused by Pseudomonas aeruginosa E-2 in mice at a challenge dose of 7.9*10e4 (cfu/mouse) + 5%mucin
Pseudomonas aeruginosa [7] = test: In vitro for the antibacterial activity against Pseudomonas aeruginosa E-2

SMILES | MIC (Escherichia coli) [µg/mL] | MIC (Pseudomonas aeruginosa [1]) [µg/mL] | MIC (Pseudomonas aeruginosa [2]) [µg/mL] | MIC (Staphylococcus aureus) [µg/mL] | ED50 (Mus musculus [3]) [mg/kg] | ED50 (Mus musculus [4]) [mg/kg] | ED50 (Mus musculus [5]) [mg/kg] | ED50 (Mus musculus [6]) [mg/kg] | MIC (Pseudomonas aeruginosa [7]) [µg/mL]
Nc1nc(/C(=N/OCCSc2nnc(-c3cc(O)c(O)cn3)o2)C(=O)N[C@@H]2C(=O)N3C(C(=O)[O-])=C(C[n+]4ccc(C(=O)[O-])cc4)CS[C@H]23)cs1.[Na+] | 0.0125 | 3.13 | 0.39 | 25 |  |  |  |  | 
Nc1nc(/C(=N/OCCSc2nnc(-c3cc(O)c(O)cn3)o2)C(=O)N[C@@H]2C(=O)N3C(C(=O)[O-])=C(CSc4cc[n+](CC(=O)[O-])cc4)CS[C@H]23)cs1.[Na+] | ≤ 0.0063 | 1.56 | 0.39 | 12.5 | 25 |  |  |  | 
Nc1nc(/C(=N/OCCSc2nnc(-c3cc(O)c(O)cn3)o2)C(=O)[N-][C@@H]2C(=O)N3C(C(=O)[O-])=C(C[n+]4ccccc4)CS[C@H]23)cs1.[Na+] | 0.025 | 3.13 | 0.78 | 3.13 |  |  |  |  | 
CC[n+]1ccc(SCC2=C(C(=O)[O-])N3C(=O)[C@@H]([N-]C(=O)/C(=N\OCCSc4nnc(-c5cc(O)c(O)cn5)o4)c4csc(N)n4)[C@H]3SC2)cc1.[Na+] | ≤ 0.0063 | 0.39 | 0.78 | 3.13 | 19 | < 0.6 |  |  | 
CN(C)CC[n+]1ccc(SCC2=C(C(=O)[O-])N3C(=O)[C@@H]([N-]C(=O)/C(=N\OCCSc4nnc(-c5cc(O)c(O)cn5)o4)c4csc(N)n4)[C@H]3SC2)cc1.[Na+] | 0.025 | 0.78 | 3.13 | 6.25 |  |  |  |  | 
Nc1nc(/C(=N/OCc2cc(O)c(O)cn2)C(=O)[N-][C@@H]2C(=O)N3C(C(=O)[O-])=C(CSc4cc[n+](CCO)cc4)CS[C@H]23)cs1.[Na+] |  |  |  | 3.13 |  |  | 0.86 | > 40 | 6.25
Nc1nc(/C(=N/OCCSc2nnc(-c3ccccn3)o2)C(=O)[N-][C@@H]2C(=O)N3C(C(=O)[O-])=C(CSc4cc[n+](CCO)cc4)CS[C@H]23)cs1.[Na+] |  |  |  | 0.39 |  |  | 0.43 | > 40 | 100
NC(=O)c1cc[n+](CC2=C(C(=O)[O-])N3C(=O)[C@@H]([N-]C(=O)/C(=N\OCCSc4nnc(-c5cc(O)c(O)cn5)o4)c4csc(N)n4)[C@H]3SC2)cc1.[Na+] | 0.025 | 3.13 | 1.56 | 6.25 |  |  |  |  | 
Nc1nc(/C(=N/OCCSc2nnc(-c3ccc(O)c(O)c3)o2)C(=O)[N-][C@@H]2C(=O)N3C(C(=O)[O-])=C(CSc4cc[n+](CCO)cc4)CS[C@H]23)cs1.[Na+] |  |  |  | 0.39 |  |  | 0.86 | 34 | 0.39
Nc1nc(/C(=N/OCCSc2nnc(-c3cc(O)c(O)cn3)o2)C(=O)[N-][C@@H]2C(=O)N3C(C(=O)[O-])=C(CSc4cc[n+](CCO)cc4)CS[C@H]23)cs1.[Na+] | ≤ 0.0063 | 0.39 | 0.78 | 3.13 | 4.2 | < 0.3 | 0.86 | 7.2 | 
Nc1nc(/C(=N/OCCSc2nnc(-c3cc(O)c(O)cn3)o2)C(=O)[N-][C@@H]2C(=O)N3C(C(=O)[O-])=C(C[n+]4ccc(SCCO)cc4)CS[C@H]23)cs1.[Na+] | 0.0125 | 0.78 | 0.78 | 3.13 |  |  |  |  | 
Nc1nc(/C(=N/OCCSc2nnc(-c3cc(O)c(O)cn3)o2)C(=O)N[C@@H]2C(=O)N3C(C(=O)[O-])=C(CSc4nc5ccccc5s4)CS[C@H]23)cs1.[Na+] | 0.0125 | 0.78 | 0.78 | 3.13 | > 100 |  |  |  | 
Cc1cc(SCC2=C(C(=O)[O-])N3C(=O)[C@@H](NC(=O)/C(=N\OCCSc4nnc(-c5cc(O)c(O)cn5)o4)c4csc(N)n4)[C@H]3SC2)n2nc(CO)nc2n1.[Na+] | < 0.0063 | 0.2 | 0.39 | 6.25 |  |  |  |  | 
Nc1nc(/C(=N/OCCSc2nnc(-c3cc(O)c(O)cn3)o2)C(=O)N[C@@H]2C(=O)N3C(C(=O)[O-])=C(CSc4nnc(-c5ccncc5)o4)CS[C@H]23)cs1.[Na+] | ≤ 0.0063 | 0.78 | 0.39 | 6.25 |  |  |  |  | 
Nc1nc(/C(=N/OCCSc2nnc(-c3cc(O)c(O)cn3)o2)C(=O)N[C@@H]2C(=O)N3C(C(=O)[O-])=C(CSc4nnc(N)s4)CS[C@H]23)cs1.[Na+] | ≤ 0.0063 | 0.2 | 0.2 | 6.25 | 35 | > 20 |  |  | 
Nc1nc(/C(=N/OCCSc2nnc(-c3cc(O)c(O)cn3)o2)C(=O)N[C@@H]2C(=O)N3C(C(=O)[O-])=C(CSc4ccccn4)CS[C@H]23)cs1.[Na+] | ≤ 0.0063 | 0.39 | 0.039 | 6.25 |  |  |  |  | 
Nc1nc(/C(=N/OCCSc2nnc(-c3cc(O)c(O)cn3)o2)C(=O)N[C@@H]2C(=O)N3C(C(=O)[O-])=C(CSc4cnns4)CS[C@H]23)cs1.[Na+] | ≤ 0.0063 | 0.78 | 0.2 | 3.13 |  |  |  |  | 
CO/N=C(\C(=O)N[C@@H]1C(=O)N2C(C(=O)O)=C(COC(C)=O)CS[C@H]12)c1csc(N)n1 [CEFOTAXIME] | 0.0125 (≈ 0.0274 µM) | 25 (≈ 54.9 µM) | 25 (≈ 54.9 µM) | 1.56 (≈ 3.43 µM) |  | 4.6 | 3 |  | 
CO/N=C(\C(=O)N[C@@H]1C(=O)N2C(C(=O)[O-])=C(C[n+]3cccc4c3CCC4)CS[C@H]12)c1csc(N)n1 [CEFPIROME] |  |  |  |  |  |  | 1.5 |  | 
CC(C)(O/N=C(\C(=O)N[C@@H]1C(=O)N2C(C(=O)[O-])=C(C[n+]3ccccc3)CS[C@H]12)c1csc(N)n1)C(=O)O [CEFTAZIDIME] | 0.05 (≈ 0.0915 µM) | 1.56 (≈ 2.85 µM) | 3.13 (≈ 5.73 µM) | 3.13 (≈ 5.73 µM) | 55 | 8.1 |  | > 100 | 
